The text below walks through data of PubChem BioAssay (NCI).

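Cells were grown in 96-well plates and exposed to each compound for 48 hours at five concentrations; endpoints were interpolated linearly between bracketing concentrations, or set to the highest concentration if not reached. Here, GI50 denotes the concentration required for 50% inhibition of growth. TGI denotes the concentration required for complete inhibition of growth.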 Bounds are passed on as bounds.

In one experiment the test system is ACHN renal. Briefly: inhibition of tumour cell growth, NCI panel, 48 h.
Regarding `COc1ccc(-c2nc3sc4c(c3c(=O)[nH]2)CCCCCC4)cc1`, the GI50 was 2.3 µM and the TGI was more than 33.2 µM.

Take `CC1(C)CC(=O)c2c(C(F)(F)F)nn(-c3ccc(C(N)=O)c(NC4CCC(OC(=O)CN)CC4)c3)c2C1` (stereo not drawn): the GI50 is 0.0622 µM and the TGI was more than 100 µM.

The molecule `O=C(NCCCCCCNC(=O)n1cc(F)c(=O)[nH]c1=O)NCCCOCCOCCOCCOCCOCCOCCOCCOCCOCCOCCOCCOCCOCCOCCOCCOCCOCCOCCOCCOCCOCCCNC(=O)C(O)C(O)C(O)C(O)CO` (stereo not drawn) had a TGI of more than 100 µM.

`COc1cc(C2CC(c3ccc4c(c3)OCO4)=NN2C=O)cc(OC)c1OC` (stereo not drawn): the GI50 is 3.53 µM and the TGI was more than 100 µM.

As for `CC1SC2=NC3=C(c4ccccc4C3=O)C(c3ccc(F)cc3)N2C1=O` (stereo not drawn), the TGI is more than 100 µM.

For the molecule `CCCC(=O)OC1C(C(O)CO)OC2OC(C)(C)OC21` (stereo not drawn), the TGI is more than 100 µM.

`COC(=O)[C@H](C[C@H](Cc1ccccc1)NC(=O)c1csc([C@@H](C[C@H](C(C)C)N(C)C(=O)[C@@H](NC(=O)[C@H]2CCCCN2C)C(C)C)OC(C)=O)n1)NC(=O)OCc1ccccc1`: the GI50 is 0.00243 µM and the TGI was more than 9 µM.

With `O=C1/C(=C\c2c[nH]c3ccccc23)c2ccccc2N1c1c(Cl)cccc1Cl`, the GI50 is 2.4 µM and the TGI was determined as 10.1 µM.

Molecule `NNC(=O)/C(=C/c1ccc(Cl)cc1Cl)NC(=O)c1ccccc1` displayed a TGI of more than 100 µM.

On to `CC1C=C(OC(=O)c2ccccc2)C(=O)C(n2cc(F)c(=O)[nH]c2=O)O1` (stereo not drawn), for which the TGI was more than 100 µM.

`Nc1ccccc1C#C/C=C\C#Cc1cccs1`: the GI50 was 15.9 µM and the TGI came to 58.3 µM.

For the molecule `COc1ccc2c(c1)cn1c3ccc(O)cc3nc(N)c21`, the GI50 was 0.109 µM and the TGI came out at 5.18 µM.

Consider `CCc1ccccc1NC(=O)C(=O)CC(=O)c1sc(Nc2ccccc2)nc1C`, for which the TGI is more than 100 µM.

The test system of a further experiment is CAKI-1 renal. Description: inhibition of tumour cell growth, NCI panel, 48 h.
For `COc1ccc(-c2nc3sc4c(c3c(=O)[nH]2)CCCCCC4)cc1`, the GI50 is more than 33.2 µM and the TGI is more than 33.2 µM.

Take `CC1(C)CC(=O)c2c(C(F)(F)F)nn(-c3ccc(C(N)=O)c(NC4CCC(OC(=O)CN)CC4)c3)c2C1` (stereo not drawn): the GI50 was 2.9 µM and the TGI is more than 100 µM.

`O=C(NCCCCCCNC(=O)n1cc(F)c(=O)[nH]c1=O)NCCCOCCOCCOCCOCCOCCOCCOCCOCCOCCOCCOCCOCCOCCOCCOCCOCCOCCOCCOCCOCCOCCCNC(=O)C(O)C(O)C(O)C(O)CO` (stereo not drawn) displayed a TGI of more than 100 µM.

As for `COc1cc(C2CC(c3ccc4c(c3)OCO4)=NN2C=O)cc(OC)c1OC` (stereo not drawn), the GI50 is 1.25 µM and the TGI was more than 100 µM.

On to `CC1SC2=NC3=C(c4ccccc4C3=O)C(c3ccc(F)cc3)N2C1=O` (stereo not drawn), for which the TGI is more than 100 µM.

With `CCCC(=O)OC1C(C(O)CO)OC2OC(C)(C)OC21` (stereo not drawn), the TGI is more than 100 µM.

Take `COC(=O)[C@H](C[C@H](Cc1ccccc1)NC(=O)c1csc([C@@H](C[C@H](C(C)C)N(C)C(=O)[C@@H](NC(=O)[C@H]2CCCCN2C)C(C)C)OC(C)=O)n1)NC(=O)OCc1ccccc1`: the GI50 was 0.00168 µM and the TGI was more than 9 µM.

`O=C1/C(=C\c2c[nH]c3ccccc23)c2ccccc2N1c1c(Cl)cccc1Cl`: the GI50 is 1.43 µM and the TGI is 4.53 µM.

`NNC(=O)/C(=C/c1ccc(Cl)cc1Cl)NC(=O)c1ccccc1` returned a TGI of more than 100 µM.

`CC1C=C(OC(=O)c2ccccc2)C(=O)C(n2cc(F)c(=O)[nH]c2=O)O1` (stereo not drawn) had a TGI of more than 100 µM.

Consider `Nc1ccccc1C#C/C=C\C#Cc1cccs1`, for which the GI50 is 3.75 µM and the TGI was 21 µM.

For the molecule `COc1ccc2c(c1)cn1c3ccc(O)cc3nc(N)c21`, the GI50 is 0.246 µM and the TGI was determined as 4.39 µM.

`CCc1ccccc1NC(=O)C(=O)CC(=O)c1sc(Nc2ccccc2)nc1C` came in with a TGI of more than 100 µM.

Another experiment has as its system COLO 205 colon. Briefly: inhibition of tumour cell growth, NCI panel, 48 h.
For `COc1ccc(-c2nc3sc4c(c3c(=O)[nH]2)CCCCCC4)cc1`, the GI50 was 2.37 µM and the TGI is more than 33.2 µM.

As for `CC1(C)CC(=O)c2c(C(F)(F)F)nn(-c3ccc(C(N)=O)c(NC4CCC(OC(=O)CN)CC4)c3)c2C1` (stereo not drawn), the GI50 is 0.0289 µM and the TGI worked out at 8.03 µM.

Turning to `O=C(NCCCCCCNC(=O)n1cc(F)c(=O)[nH]c1=O)NCCCOCCOCCOCCOCCOCCOCCOCCOCCOCCOCCOCCOCCOCCOCCOCCOCCOCCOCCOCCOCCOCCCNC(=O)C(O)C(O)C(O)C(O)CO` (stereo not drawn), the TGI was more than 100 µM.

`COc1cc(C2CC(c3ccc4c(c3)OCO4)=NN2C=O)cc(OC)c1OC` (stereo not drawn): the GI50 was 1.3 µM and the TGI worked out at 5.91 µM.

In turn, `CC1SC2=NC3=C(c4ccccc4C3=O)C(c3ccc(F)cc3)N2C1=O` (stereo not drawn) showed a TGI of more than 100 µM.

The molecule `CCCC(=O)OC1C(C(O)CO)OC2OC(C)(C)OC21` (stereo not drawn) showed a TGI of more than 100 µM.

Regarding `COC(=O)[C@H](C[C@H](Cc1ccccc1)NC(=O)c1csc([C@@H](C[C@H](C(C)C)N(C)C(=O)[C@@H](NC(=O)[C@H]2CCCCN2C)C(C)C)OC(C)=O)n1)NC(=O)OCc1ccccc1`, the GI50 is less than 0.0009 µM.

`O=C1/C(=C\c2c[nH]c3ccccc23)c2ccccc2N1c1c(Cl)cccc1Cl`: the GI50 was 1.8 µM and the TGI is 3.27 µM.

Molecule `NNC(=O)/C(=C/c1ccc(Cl)cc1Cl)NC(=O)c1ccccc1` came in with a TGI of more than 100 µM.

With `CC1C=C(OC(=O)c2ccccc2)C(=O)C(n2cc(F)c(=O)[nH]c2=O)O1` (stereo not drawn), the TGI is more than 100 µM.

As for `Nc1ccccc1C#C/C=C\C#Cc1cccs1`, the GI50 is 18.2 µM and the TGI was determined as 78.3 µM.

In the case of `COc1ccc2c(c1)cn1c3ccc(O)cc3nc(N)c21`, the GI50 was 0.885 µM and the TGI worked out at 4.68 µM.

Regarding `CCc1ccccc1NC(=O)C(=O)CC(=O)c1sc(Nc2ccccc2)nc1C`, the TGI was more than 100 µM.

The test system of another experiment is HOP-92 NSCLC. Briefly: inhibition of tumour cell growth, NCI panel, 48 h.
As for `COc1ccc(-c2nc3sc4c(c3c(=O)[nH]2)CCCCCC4)cc1`, the GI50 is 1.4 µM and the TGI came to 14.5 µM.

As for `CC1(C)CC(=O)c2c(C(F)(F)F)nn(-c3ccc(C(N)=O)c(NC4CCC(OC(=O)CN)CC4)c3)c2C1` (stereo not drawn), the GI50 is 0.124 µM and the TGI is 1.04 µM.

The molecule `O=C(NCCCCCCNC(=O)n1cc(F)c(=O)[nH]c1=O)NCCCOCCOCCOCCOCCOCCOCCOCCOCCOCCOCCOCCOCCOCCOCCOCCOCCOCCOCCOCCOCCOCCCNC(=O)C(O)C(O)C(O)C(O)CO` (stereo not drawn) returned a TGI of more than 100 µM.

`COc1cc(C2CC(c3ccc4c(c3)OCO4)=NN2C=O)cc(OC)c1OC` (stereo not drawn) came in with a TGI of more than 100 µM.

On to `CC1SC2=NC3=C(c4ccccc4C3=O)C(c3ccc(F)cc3)N2C1=O` (stereo not drawn), for which the TGI is more than 100 µM.

For `CCCC(=O)OC1C(C(O)CO)OC2OC(C)(C)OC21` (stereo not drawn), the TGI is more than 100 µM.

With `COC(=O)[C@H](C[C@H](Cc1ccccc1)NC(=O)c1csc([C@@H](C[C@H](C(C)C)N(C)C(=O)[C@@H](NC(=O)[C@H]2CCCCN2C)C(C)C)OC(C)=O)n1)NC(=O)OCc1ccccc1`, the GI50 is 0.00163 µM and the TGI was more than 9 µM.

Turning to `O=C1/C(=C\c2c[nH]c3ccccc23)c2ccccc2N1c1c(Cl)cccc1Cl`, the GI50 is 2 µM and the TGI is 3.54 µM.

As to `NNC(=O)/C(=C/c1ccc(Cl)cc1Cl)NC(=O)c1ccccc1`, the TGI was more than 100 µM.

In turn, `CC1C=C(OC(=O)c2ccccc2)C(=O)C(n2cc(F)c(=O)[nH]c2=O)O1` (stereo not drawn) showed a TGI of more than 100 µM.

`Nc1ccccc1C#C/C=C\C#Cc1cccs1`: the GI50 is 6.4 µM and the TGI was 36.6 µM.

Regarding `COc1ccc2c(c1)cn1c3ccc(O)cc3nc(N)c21`, the GI50 was 1.06 µM and the TGI was more than 37 µM.

Turning to `CCc1ccccc1NC(=O)C(=O)CC(=O)c1sc(Nc2ccccc2)nc1C`, the TGI was more than 100 µM.

The test system of another experiment is K-562 leukemia. Description: inhibition of tumour cell growth, NCI panel, 48 h.
In the case of `COc1ccc(-c2nc3sc4c(c3c(=O)[nH]2)CCCCCC4)cc1`, the GI50 is 0.229 µM and the TGI was more than 33.2 µM.

As to `CC1(C)CC(=O)c2c(C(F)(F)F)nn(-c3ccc(C(N)=O)c(NC4CCC(OC(=O)CN)CC4)c3)c2C1` (stereo not drawn), the GI50 was 0.036 µM and the TGI was more than 79.4 µM.

Molecule `O=C(NCCCCCCNC(=O)n1cc(F)c(=O)[nH]c1=O)NCCCOCCOCCOCCOCCOCCOCCOCCOCCOCCOCCOCCOCCOCCOCCOCCOCCOCCOCCOCCOCCOCCCNC(=O)C(O)C(O)C(O)C(O)CO` (stereo not drawn) had a TGI of more than 100 µM.

As to `COc1cc(C2CC(c3ccc4c(c3)OCO4)=NN2C=O)cc(OC)c1OC` (stereo not drawn), the GI50 was 0.621 µM and the TGI was more than 100 µM.

Consider `CC1SC2=NC3=C(c4ccccc4C3=O)C(c3ccc(F)cc3)N2C1=O` (stereo not drawn), for which the TGI is more than 100 µM.

`CCCC(=O)OC1C(C(O)CO)OC2OC(C)(C)OC21` (stereo not drawn) had a TGI of less than 3.16 µM.

With `COC(=O)[C@H](C[C@H](Cc1ccccc1)NC(=O)c1csc([C@@H](C[C@H](C(C)C)N(C)C(=O)[C@@H](NC(=O)[C@H]2CCCCN2C)C(C)C)OC(C)=O)n1)NC(=O)OCc1ccccc1`, the GI50 was less than 0.0009 µM and the TGI is more than 3.46 µM.

For the molecule `O=C1/C(=C\c2c[nH]c3ccccc23)c2ccccc2N1c1c(Cl)cccc1Cl`, the GI50 is 2.28 µM and the TGI amounted to 5.4 µM.

In the case of `NNC(=O)/C(=C/c1ccc(Cl)cc1Cl)NC(=O)c1ccccc1`, the TGI was more than 100 µM.

`CC1C=C(OC(=O)c2ccccc2)C(=O)C(n2cc(F)c(=O)[nH]c2=O)O1` (stereo not drawn) had a TGI of more than 100 µM.

As to `Nc1ccccc1C#C/C=C\C#Cc1cccs1`, the GI50 was 3.53 µM and the TGI is more than 100 µM.

`COc1ccc2c(c1)cn1c3ccc(O)cc3nc(N)c21`: the GI50 was 0.0735 µM and the TGI came out at 2.46 µM.

Regarding `CCc1ccccc1NC(=O)C(=O)CC(=O)c1sc(Nc2ccccc2)nc1C`, the TGI was more than 100 µM.
